Here are results for 18 compounds from patent publication US6288091A, “Antiherpes virus compounds and methods for their preparation and use” (Boehringer Ingelheim Ltd., priority 1999, dated 2001).

The structures appear in SMILES notation. Like-named read-outs stand apart in the source and are kept apart here.

A word on the IC50: it is the concentration that gives 50% inhibition. High values mean weaker potency in that assay, low ones greater potency in that assay. Broadly, the EC50 is the concentration needed to bring the measured effect to its halfway point.

Data set [1] concerns the target T1, HSV-1 helicase-primase (Human herpesvirus 1, UniProt P10189+P10236).
T1 construct: made in house; host or cells: Sf21 insect cells triply infected with recombinant baculoviruses (UL5, UL8, UL52)
Briefly: HSV-1 DNA-dependent ATPase assay (inhibition of HSV-1 helicase-primase). The data set is classed as biochemical. The method, boiled down:
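ATP hydrolysis was measured as inorganic phosphate (malachite green/molybdate, 650 nm) after 20 min at 34°. Reaction: 3 μg/mL purified Sf21-expressed UL5/UL8/UL52 helicase-primase, 25 μM single-stranded M13 DNA hybridized to 68-mer, 4 mM ATP, pH 7.5 HEPES buffer, 3.3% DMSO. Net absorbance change with and without inhibitor gave DNA-dependent ATPase activity.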

Data set [2] has as its system HCMV (strain AD169). The data set can be described thus: Inhibition of HCMV replication, ELISA assay (Hs-68 cells). The data set is classed as cell-based, Human Cytomegalovirus (HCMV). Conditions: read-out: ELISA CMV EC50. The method in brief:
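EC50 derived from % inhibition of viral replication, read as p28 late-protein ELISA signal (mAb UL99, peroxidase/OPD, 450 nm) on fixed cells. Read-out came 8 days post-infection at 37 °C in DMEM with 5% FBS plus compound, after 2 h adsorption of AD169 at MOI 0.01 PFU/cell onto near-confluent Hs-68 cells.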
(In general: An ELISA detects its analyte on a solid surface through an enzyme-linked reagent.)

A short description of data set [3]: Inhibition of HCMV replication, plaque reduction assay (PRA, Hs-68 cells). The format is cell-based, Human Cytomegalovirus (HCMV). The conditions noted are these: human, Group 1 Table 5 entries, read-out: Cytotoxic at this concentration (footnote *, PRA CMV). The method, boiled down: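 Hs-68 monolayers (80–90% confluent) were infected with ~50 PFU HCMV AD169 for 2 h at 37°, then given compound in DMEM/5% inactivated FBS, refreshed after 4 days and kept 4 more days. Plaques were counted after formaldehyde fixation and crystal violet staining. EC50 derives from percent plaque reduction versus untreated wells.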
(Plaque reduction counts the foci of infection that form in a cell layer.)

The mark [4] stands for this setting: Human betaherpesvirus 5, AD169, Hs68, Group 2 Table 1 entries.
Where [5] appears, read: Human betaherpesvirus 5, AD169, Hs68, Group 1 Table 6 entries.
The mark [6] stands for this setting: Human betaherpesvirus 5, AD169, Hs68, Group 1 Table 5 entries.

T1 sequence (P10192 whole entry): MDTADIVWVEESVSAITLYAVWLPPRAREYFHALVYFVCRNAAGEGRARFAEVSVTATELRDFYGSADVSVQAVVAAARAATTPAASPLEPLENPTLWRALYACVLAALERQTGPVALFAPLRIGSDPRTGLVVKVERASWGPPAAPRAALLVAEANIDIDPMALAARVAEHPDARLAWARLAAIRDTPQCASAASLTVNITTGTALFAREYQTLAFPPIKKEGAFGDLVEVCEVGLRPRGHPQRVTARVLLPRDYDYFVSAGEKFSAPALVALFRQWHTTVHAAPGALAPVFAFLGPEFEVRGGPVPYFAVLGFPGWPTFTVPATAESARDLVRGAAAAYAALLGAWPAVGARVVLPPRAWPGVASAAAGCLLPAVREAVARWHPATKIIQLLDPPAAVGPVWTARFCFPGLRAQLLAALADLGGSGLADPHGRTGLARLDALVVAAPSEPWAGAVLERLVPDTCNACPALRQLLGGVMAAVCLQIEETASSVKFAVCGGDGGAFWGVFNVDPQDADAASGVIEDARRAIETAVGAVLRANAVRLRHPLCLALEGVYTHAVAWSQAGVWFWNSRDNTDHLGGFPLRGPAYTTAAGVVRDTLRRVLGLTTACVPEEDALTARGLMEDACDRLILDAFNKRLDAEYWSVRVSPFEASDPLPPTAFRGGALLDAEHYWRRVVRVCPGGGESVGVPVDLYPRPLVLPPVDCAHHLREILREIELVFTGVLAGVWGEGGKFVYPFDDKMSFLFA
T1 sequence (P10236 whole entry): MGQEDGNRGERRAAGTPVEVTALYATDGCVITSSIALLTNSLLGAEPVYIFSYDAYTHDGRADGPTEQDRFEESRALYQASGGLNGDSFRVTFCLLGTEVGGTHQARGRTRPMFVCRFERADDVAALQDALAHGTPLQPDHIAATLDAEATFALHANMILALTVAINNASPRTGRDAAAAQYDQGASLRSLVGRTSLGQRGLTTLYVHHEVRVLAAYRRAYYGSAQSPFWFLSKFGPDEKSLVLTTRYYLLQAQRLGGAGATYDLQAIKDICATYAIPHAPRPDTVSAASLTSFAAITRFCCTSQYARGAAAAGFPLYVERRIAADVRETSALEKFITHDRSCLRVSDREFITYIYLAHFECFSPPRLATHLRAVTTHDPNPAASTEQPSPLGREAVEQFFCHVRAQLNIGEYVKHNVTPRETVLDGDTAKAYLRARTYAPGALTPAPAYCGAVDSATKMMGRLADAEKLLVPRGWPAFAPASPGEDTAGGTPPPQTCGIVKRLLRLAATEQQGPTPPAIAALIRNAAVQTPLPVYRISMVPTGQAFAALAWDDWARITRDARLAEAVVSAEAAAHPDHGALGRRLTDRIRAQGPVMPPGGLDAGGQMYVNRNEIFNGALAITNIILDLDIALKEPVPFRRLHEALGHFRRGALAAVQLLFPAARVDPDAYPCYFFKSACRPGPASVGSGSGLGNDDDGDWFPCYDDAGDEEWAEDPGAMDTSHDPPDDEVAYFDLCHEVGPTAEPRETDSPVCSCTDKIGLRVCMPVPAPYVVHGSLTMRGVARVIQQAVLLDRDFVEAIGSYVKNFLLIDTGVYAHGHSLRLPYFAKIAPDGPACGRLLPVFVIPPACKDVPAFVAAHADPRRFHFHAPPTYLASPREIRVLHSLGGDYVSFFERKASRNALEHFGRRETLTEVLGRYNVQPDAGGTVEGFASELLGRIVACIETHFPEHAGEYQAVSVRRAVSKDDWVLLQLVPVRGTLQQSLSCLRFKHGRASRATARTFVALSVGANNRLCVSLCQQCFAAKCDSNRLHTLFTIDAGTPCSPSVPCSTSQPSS
T1 sequence (P10189 whole entry): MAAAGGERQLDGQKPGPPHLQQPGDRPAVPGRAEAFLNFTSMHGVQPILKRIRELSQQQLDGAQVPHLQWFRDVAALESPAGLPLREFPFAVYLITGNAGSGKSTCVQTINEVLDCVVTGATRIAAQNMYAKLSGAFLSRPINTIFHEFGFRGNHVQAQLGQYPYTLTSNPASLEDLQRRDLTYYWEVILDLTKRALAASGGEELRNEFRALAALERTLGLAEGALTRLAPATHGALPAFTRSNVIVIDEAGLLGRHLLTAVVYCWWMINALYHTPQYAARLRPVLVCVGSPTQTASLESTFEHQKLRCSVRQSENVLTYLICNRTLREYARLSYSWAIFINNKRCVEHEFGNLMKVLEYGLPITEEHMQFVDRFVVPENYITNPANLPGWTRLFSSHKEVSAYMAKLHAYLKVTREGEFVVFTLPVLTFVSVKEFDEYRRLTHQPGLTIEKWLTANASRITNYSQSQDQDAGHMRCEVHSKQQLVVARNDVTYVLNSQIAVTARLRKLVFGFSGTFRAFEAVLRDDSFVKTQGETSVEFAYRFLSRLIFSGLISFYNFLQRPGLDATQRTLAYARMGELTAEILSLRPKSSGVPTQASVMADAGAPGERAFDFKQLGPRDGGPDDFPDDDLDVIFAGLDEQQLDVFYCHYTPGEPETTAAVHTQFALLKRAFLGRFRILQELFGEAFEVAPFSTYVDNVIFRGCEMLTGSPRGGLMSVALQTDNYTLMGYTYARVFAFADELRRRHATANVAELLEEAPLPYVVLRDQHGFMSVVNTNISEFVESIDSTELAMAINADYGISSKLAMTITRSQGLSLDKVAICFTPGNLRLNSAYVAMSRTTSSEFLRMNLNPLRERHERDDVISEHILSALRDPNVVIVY

With `CCCCN(CCCC)C(=O)Nc1ccc(-c2csc(N)n2)cc1` [Example 1, N-{4-(2-Amino-4-thiazolyl)phenyl}-N,N-dibutylurea], in data set [1] (Group 2 Table 1 entries), half-maximal inhibition (IC50) was put at 4.2 µM. For the same compound, in data set [2] (setting [4]), the EC50 amounted to 4.1 µM.
As to `Nc1nc(-c2ccc(NC(=O)[C@H]3CCCN3C(=O)c3ccccc3)cc2)cs1` [Example 9], the half-maximal inhibitory concentration (IC50) in data set [1] (Group 1 Table 6 entries) was found to be 1.6 µM. Further, the EC50 in data set [2] (setting [5]) stood at 0.3 µM.
The compound `CCCCN(CCCC)C(=O)C(=O)Nc1ccc(-c2csc(N)n2)cc1` [Example 1, N-{4-(2-Amino-4-thiazolyl)phenyl}-N',N'-dibutylethanediamide] registered an IC50 in data set [1] (Group 2 Table 2 entries (A = C(O))) of 7 µM. Moreover, in data set [2] (Human betaherpesvirus 5, AD169, Hs68, Group 2 Table 2 entries), the EC50 came to 2.6 µM.
Compound `CN(CCc1ccccn1)C(=O)Nc1ccc(-c2csc(N)n2)cc1` [Example 4] showed a concentration for half-maximal inhibition (IC50) in data set [1] (Group 2 Table 1 entries) of 3.7 µM. Also, the EC50 in data set [2] (setting [4]) stood at 126 µM.
As to `Nc1nc(-c2ccc(NC(=O)[C@H]3CCC(=O)N3CC3CCCCC3)cc2)cs1` [Example 3], in data set [1] (Group 1 Table 6 entries), the midpoint of inhibition, the IC50, lay at 6.2 µM. Moreover, the EC50 in data set [2] (setting [5]) is 1.4 µM.
Consider `CN(C(=O)OC(C)(C)C)[C@@H](Cc1ccccc1)C(=O)Nc1ccc(-c2csc(N)n2)cc1` [Example 10], for which, in data set [1] (Group 1 Table 5 entries), the IC50 was 0.09 µM. Besides, the EC50 in data set [2] (setting [6]) came out at 2.5 µM.
The matching figures for `Nc1nc(-c2ccc(NC(=O)[C@H](Cc3ccccc3)NS(=O)(=O)N3CCOCC3)cc2)cs1` [Example 25]: 0.17 µM and 0.6 µM.
On to `Nc1nc(-c2ccc(NC(=O)[C@@H]3CCC(=O)N3Cc3ccccc3)cc2)cs1` [Example 2], for which it took 6.2 µM to reach half-maximal inhibition in data set [1] (Group 1 Table 6 entries) (IC50). For the same compound, the EC50 in data set [2] (setting [5]) was found to be 22 µM.
Compound `CCCC(CCC)NC(=O)Nc1ccc(-c2csc(N)n2)cc1` [Example 11] came in with an IC50 in data set [1] (Group 2 Table 1 entries) of 17 µM. Besides, the EC50 in data set [2] (setting [4]) was 1.3 µM.
In the case of `Nc1nc(-c2ccc(NC(=O)[C@@H]3CCCN3C(=O)C3CCCCC3)cc2)cs1` [Example 6], inhibition in data set [1] (Group 1 Table 6 entries) was half-maximal at 0.052 µM (IC50). Also, the EC50 in data set [2] (setting [5]) was determined as 28 µM.
For `CC(C)(C)NC(=O)Nc1ccc(-c2csc(N)n2)cc1` [Example 12], the IC50 in data set [1] (Group 2 Table 1 entries) came out at 20 µM. Further, the EC50 in data set [2] (setting [4]) is 6 µM.
As for `CC(C)(C)OC(=O)N1CCC[C@@H]1C(=O)Nc1ccc(-c2csc(N)n2)cc1` [Example 8], it took 7.5 µM to reach half-maximal inhibition in data set [1] (Group 1 Table 6 entries) (IC50). The EC50 in data set [2] (setting [5]) was 11 µM.
For the compound `CN(CCc1ccccn1)C(=O)Nc1ccc(-c2csc(NC(=O)OC(C)(C)C)n2)cc1` [Example 14], the concentration for half-maximal inhibition (IC50) in data set [1] (Group 2 Table 1 entries) is over 100 µM. In data set [2] (setting [4]), the concentration for a half-maximal effect (EC50) was determined as 1.5 µM.
As for `Nc1nc(-c2ccc(NC(=O)[C@H](Cc3ccccc3)N(Cc3ccccc3)C(=O)C3CCCCC3)cc2)cs1` [Example 11], in data set [1] (Group 1 Table 5 entries), the IC50 amounted to 0.4 µM. Further, the EC50 in data set [2] (setting [6]) turned out to be 1.4 µM.
Consider `CCCCN(CCCC)C(=O)Nc1ccc(-c2csc(NC(=O)OC(C)(C)C)n2)cc1` [Example 15], for which the IC50 in data set [1] (Group 2 Table 1 entries) is over 100 µM. Besides, the EC50 in data set [2] (setting [4]) stood at 1 µM.
Take `CC(C)(C)CC(=O)N[C@@H](Cc1ccccc1)C(=O)Nc1ccc(-c2csc(N)n2)cc1` [Example 19]: in data set [1] (Group 1 Table 5 entries), the IC50 turned out to be 0.051 µM. Also, the 50% effective concentration (EC50) in data set [2] (setting [6]) is 3.8 µM. Further, the MCC at 192 h in data set [3] was determined as 21 µM.
`Nc1nc(-c2ccc(NC(=O)[C@@H]3CCCN3C(=O)c3ccccc3)cc2)cs1` [Example 5] registered a half-maximal inhibitory concentration (IC50) in data set [1] (Group 1 Table 6 entries) of 1.6 µM. In addition, the EC50 in data set [2] (setting [5]) was determined as 63 µM.
For `Nc1nc(-c2ccc(NC(=O)[C@H]3CCCN3C(=O)C3CCCCC3)cc2)cs1` [Example 10], half-maximal inhibition in data set [1] (Group 1 Table 6 entries) (IC50) required 0.13 µM. In addition, the EC50 in data set [2] (setting [5]) was 0.6 µM.
